Laboratory results as given in ChEMBL document CHEMBL1201862, “PubChem BioAssay data set” (2004).
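Cultured in 96-well plates, cells were exposed to test compound for 48 hours across five concentrations. At the GI50, growth is halved.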 Active and inactive are the calls of the source. Cut-off read from the data, not from the text of the source: active = GI50 up to about 1.1 µM and inactive = higher.

What was measured:
Assay in all cases: inhibition of tumour cell growth, NCI panel, 48 h
OVCAR-4 = tested on: OVCAR-4
HL-60 = tested on: HL-60
EKVX = tested on: EKVX
RPMI-8226 = tested on: RPMI-8226
SNB-75 = tested on: SNB-75
MOLT-4 = tested on: MOLT-4
Malme-3M = tested on: Malme-3M
NCI-H460 = tested on: NCI-H460
UO-31 = tested on: UO-31
HT-29 = tested on: HT-29
NCI-H522 = tested on: NCI-H522
NCI-H23 = tested on: NCI-H23
OVCAR-8 = tested on: OVCAR-8
LOX IMVI = tested on: LOX IMVI
HOP-92 = tested on: HOP-92
CCRF-CEM = tested on: CCRF-CEM
COLO 205 = tested on: COLO 205
TK-10 = tested on: TK-10
NCI-H226 = tested on: NCI-H226

Row | Structure (SMILES) | GI50 (OVCAR-4) | GI50 (HL-60) | GI50 (EKVX) | GI50 (RPMI-8226) | GI50 (SNB-75) | GI50 (MOLT-4) | GI50 (Malme-3M) | GI50 (NCI-H460) | GI50 (UO-31) | GI50 (HT-29) | GI50 (NCI-H522) | GI50 (NCI-H23) | GI50 (OVCAR-8) | GI50 (LOX IMVI) | GI50 (HOP-92) | GI50 (CCRF-CEM) | GI50 (COLO 205) | GI50 (TK-10) | GI50 (NCI-H226)
1 | COc1ccc(/C=C2/CCCC/C2=N/O)cc1 | 69.5 µM (inactive) | > 100 µM (inactive) | > 100 µM (inactive) | > 100 µM (inactive) | 31.6 µM (inactive) | 42.2 µM (inactive) | > 100 µM (inactive) | > 100 µM (inactive) | > 100 µM (inactive) | > 100 µM (inactive) | 40.5 µM (inactive) | 93.1 µM (inactive) | > 100 µM (inactive) | 29.6 µM (inactive) | 46.1 µM (inactive) | 51.6 µM (inactive) | > 100 µM (inactive) | > 100 µM (inactive) | 
2 | O=C1C(O)=C(CN(CCCl)CCCl)C(=O)c2ccccc21 | > 100 µM (inactive) | 31 µM (inactive) | > 100 µM (inactive) |  | 73.6 µM (inactive) | 29.3 µM (inactive) | 53.5 µM (inactive) | 29.2 µM (inactive) | 37.4 µM (inactive) | 42.8 µM (inactive) | 66.8 µM (inactive) | 68.9 µM (inactive) | 76.9 µM (inactive) |  | 56.5 µM (inactive) | 42.3 µM (inactive) |  | > 100 µM (inactive) | 
3 | CC(C)(C)c1cc(COc2c3sc(=S)sc3c(OCc3cc(C(C)(C)C)cc(C(C)(C)C)c3)c3sc(=S)sc23)cc(C(C)(C)C)c1 | > 100 µM (inactive) | > 100 µM (inactive) | > 100 µM (inactive) | > 100 µM (inactive) | > 100 µM (inactive) | > 100 µM (inactive) |  | > 100 µM (inactive) |  | > 100 µM (inactive) |  | > 100 µM (inactive) | > 100 µM (inactive) | > 100 µM (inactive) |  | > 100 µM (inactive) | > 100 µM (inactive) | > 100 µM (inactive) | 
4 | CCCCN(C)CC(C(C)=O)C(c1ccccc1)c1c(O)c2ccccc2oc1=O (configuration not stated) | > 100 µM (inactive) | > 100 µM (inactive) | > 100 µM (inactive) | > 100 µM (inactive) | 65.2 µM (inactive) | > 100 µM (inactive) | > 100 µM (inactive) | > 100 µM (inactive) | > 100 µM (inactive) | > 100 µM (inactive) | > 100 µM (inactive) | 62.2 µM (inactive) | > 100 µM (inactive) | > 100 µM (inactive) |  | > 100 µM (inactive) | > 100 µM (inactive) | > 100 µM (inactive) | > 100 µM (inactive)
5 | CC1CC2(CC[C@@H]1O)OCCO2 (some centres not stated) | > 100 µM (inactive) | > 100 µM (inactive) | > 100 µM (inactive) | > 100 µM (inactive) |  | > 100 µM (inactive) | > 100 µM (inactive) | > 100 µM (inactive) | > 100 µM (inactive) | > 100 µM (inactive) | > 100 µM (inactive) | > 100 µM (inactive) | > 100 µM (inactive) | > 100 µM (inactive) | > 100 µM (inactive) | > 100 µM (inactive) | > 100 µM (inactive) | > 100 µM (inactive) | 
6 | CCOC(=O)C(=O)Nc1ccc(Cl)c(C(F)(F)F)c1 | > 100 µM (inactive) | > 100 µM (inactive) | > 100 µM (inactive) | > 100 µM (inactive) | > 100 µM (inactive) | > 100 µM (inactive) | > 100 µM (inactive) |  | > 100 µM (inactive) | > 100 µM (inactive) | > 100 µM (inactive) | > 100 µM (inactive) | > 100 µM (inactive) | > 100 µM (inactive) | < 0.01 µM (active) | > 100 µM (inactive) | > 100 µM (inactive) | > 100 µM (inactive) | > 100 µM (inactive)
7 | O=C1OC(c2ccccc2)=N/C1=C/C=C/c1ccco1 | > 100 µM (inactive) |  | > 100 µM (inactive) |  |  | > 100 µM (inactive) | > 100 µM (inactive) |  | > 100 µM (inactive) | > 100 µM (inactive) | > 100 µM (inactive) | > 100 µM (inactive) | > 100 µM (inactive) |  | > 100 µM (inactive) | > 100 µM (inactive) | > 100 µM (inactive) | > 100 µM (inactive) | 
8 | N/N=C(\N)Nc1cccc2ccccc12 | > 100 µM (inactive) | > 100 µM (inactive) | > 100 µM (inactive) | > 100 µM (inactive) | > 100 µM (inactive) | > 100 µM (inactive) | > 100 µM (inactive) | > 100 µM (inactive) | > 100 µM (inactive) | > 100 µM (inactive) |  | > 100 µM (inactive) | > 100 µM (inactive) |  | 27.9 µM (inactive) | > 100 µM (inactive) | > 100 µM (inactive) | > 100 µM (inactive) | > 100 µM (inactive)
9 | O=C(Nc1ccccc1-c1nn(CO)c(=S)n(CO)c1=O)C(F)(F)F | > 100 µM (inactive) |  | > 100 µM (inactive) |  | 92.3 µM (inactive) | > 100 µM (inactive) | > 100 µM (inactive) | > 100 µM (inactive) | > 100 µM (inactive) | > 100 µM (inactive) | > 100 µM (inactive) | > 100 µM (inactive) | > 100 µM (inactive) | > 100 µM (inactive) | > 100 µM (inactive) | > 100 µM (inactive) | > 100 µM (inactive) | > 100 µM (inactive) | > 100 µM (inactive)
